# In ChEMBL document CHEMBL1124432, “(6R,6S)-5,8,10-trideaza-5,6,7,8-tetrahydrofolate and 6(R,6S)-5,8,10-trideaza-5,6,7,8-tetrahydropteroyl-L-ornithine as potential antifolates and antitumor agents” (J Med Chem, 1989):
# T1: Folylpolyglutamate synthase, mitochondrial (Mus musculus) (UniProt P48760)
# T1 sequence (whole entry): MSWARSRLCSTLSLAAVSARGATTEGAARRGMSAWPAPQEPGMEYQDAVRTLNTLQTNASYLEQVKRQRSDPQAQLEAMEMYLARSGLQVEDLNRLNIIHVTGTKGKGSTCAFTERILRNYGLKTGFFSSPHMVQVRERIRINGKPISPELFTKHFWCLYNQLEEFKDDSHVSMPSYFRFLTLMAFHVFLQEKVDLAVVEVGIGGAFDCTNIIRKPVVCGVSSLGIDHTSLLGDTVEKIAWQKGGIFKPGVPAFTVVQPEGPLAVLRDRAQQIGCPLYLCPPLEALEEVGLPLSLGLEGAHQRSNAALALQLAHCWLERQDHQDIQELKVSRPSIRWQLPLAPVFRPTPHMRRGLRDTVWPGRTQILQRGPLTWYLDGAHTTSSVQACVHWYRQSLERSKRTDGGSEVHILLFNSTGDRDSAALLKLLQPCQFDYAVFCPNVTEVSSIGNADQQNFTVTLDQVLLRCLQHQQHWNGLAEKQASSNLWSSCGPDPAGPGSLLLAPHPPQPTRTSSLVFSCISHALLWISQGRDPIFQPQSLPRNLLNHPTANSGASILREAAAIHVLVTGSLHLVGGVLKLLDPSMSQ
# B1: Folylpolyglutamate synthase, mitochondrial (Mus musculus), P48760 (protein)
# chain: T1 sequence (whole entry)
# Key:
# [1] = biological target: T1, Folylpolyglutamate synthase, mitochondrial (Mus musculus); test: (§1) The apparent Km of compound as a substrate for partially purified mouse liver Folyl-polyglutamate synthase
# CCRF-CEM = test: Inhibitory activity against the growth of CEM human leukoblast cells; value ranges from 20-60; format: functional, cell-based
# L1210 = test: Inhibitory activity against the growth of murine L1210 leukemia cells; value ranges from 20-60; format: functional, cell-based; settings: Mus musculus
# [2] = Inhibitory activity against the growth of SSC15 human squamous carcinoma cells; value ranges from 20-60; format: functional
# [3] = substrate: Nc1nc(N)c2nc(CNc3ccc(C(=O)N[C@@H](CCC(=O)O)C(=O)O)cc3)cnc2n1; test: as §1
# [4] = substrate: Nc1nc(O)c2c(n1)CCC(CCc1ccc(C(=O)NC(CCC(=O)O)C(=O)O)cc1)C2; test: as §1
# [5] = substrate: Nc1nc(O)c2c(n1)NCC(CNc1ccc(C(=O)N[C@@H](CCC(=O)O)C(=O)O)cc1)N2; test: as §1
molecule,measurement,setting,value
NCCCC(NC(=O)c1ccc(CCC2CCc3nc(N)nc(O)c3C2)cc1)C(=O)O (configuration not stated),Kis,[1],10.1 µM
Nc1nc(O)c2cc(CCc3ccc(C(=O)N[C@@H](CCC(=O)O)C(=O)O)cc3)cnc2n1,IC50,CCRF-CEM,60 nM
same,IC50,L1210,60 nM
same,IC50,[2],60 nM
B1,Km,[3],20 µM
same,Km,[4],1.54 µM
same,Km,[5],8 µM
